Measurements taken from ChEMBL document CHEMBL1201862, “PubChem BioAssay data set” (2004).
Active and inactive are the calls of the source.

What was measured:
[1] = biological target: T1, High affinity choline transporter 1 (Homo sapiens, UniProt Q9GZV3); test: choline transporter CHT inhibition potency – cell-based, 3H-choline uptake, radioactive, HEK293 CHT LV-AA, orthogonal assay for CHT inhibitor project, dose response (AID 651756); type: functional
T1 sequence (Q9GZV3 whole entry): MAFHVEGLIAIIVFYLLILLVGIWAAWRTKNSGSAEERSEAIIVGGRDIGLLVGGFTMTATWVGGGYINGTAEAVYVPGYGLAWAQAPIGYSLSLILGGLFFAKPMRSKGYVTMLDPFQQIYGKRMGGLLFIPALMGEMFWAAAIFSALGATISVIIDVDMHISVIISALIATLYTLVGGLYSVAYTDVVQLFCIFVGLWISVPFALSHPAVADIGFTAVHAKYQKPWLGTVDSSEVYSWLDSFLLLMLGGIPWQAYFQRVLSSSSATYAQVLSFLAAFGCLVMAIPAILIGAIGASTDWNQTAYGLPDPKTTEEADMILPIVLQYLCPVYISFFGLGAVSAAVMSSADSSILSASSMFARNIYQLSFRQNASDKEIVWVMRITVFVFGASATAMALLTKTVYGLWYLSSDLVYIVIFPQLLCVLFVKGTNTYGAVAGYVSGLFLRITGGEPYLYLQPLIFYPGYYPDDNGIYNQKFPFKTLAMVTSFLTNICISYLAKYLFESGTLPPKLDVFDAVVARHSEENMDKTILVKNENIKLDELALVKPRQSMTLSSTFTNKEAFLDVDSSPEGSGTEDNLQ

Beta-lactamase [2] = biological target: Beta-lactamase (Pseudomonas aeruginosa, UniProt Q79MP6);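 also: biochemical dose-response test of metallo-beta-lactamase enzyme inhibition, read out by epi-absorbance; purified recombinant IMP-1 metallo-beta-lactamase with nitrocefin as substrate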
Beta-lactamase [3] = biological target: Beta-lactamase (Salmonella choleraesuis (strain SC-B67), UniProt Q5J463)
[4] = biological target: Mitochondrial peptide methionine sulfoxide reductase (Bos taurus, UniProt P54149); test: Absorbance-based biochemical high throughput dose response assay for activators of Methionine sulfoxide reductase A (MsrA).; type: functional
[5] = viability loss in HeLa cells – cytotoxicity control for MgcRacGAP inhibitor project, dose response (AID 624300); type: functional
[6] = biological target: T2, Rac GTPase-activating protein 1 (Homo sapiens, UniProt Q9H0H5); test: blockers of MgcRacGAP-driven Rac1 GTP hydrolysis – biochemical, ADP Hunter fluorescence, primary and confirmatory, confirmation (AID 624330); type: functional
T2 sequence (Q9H0H5 whole entry): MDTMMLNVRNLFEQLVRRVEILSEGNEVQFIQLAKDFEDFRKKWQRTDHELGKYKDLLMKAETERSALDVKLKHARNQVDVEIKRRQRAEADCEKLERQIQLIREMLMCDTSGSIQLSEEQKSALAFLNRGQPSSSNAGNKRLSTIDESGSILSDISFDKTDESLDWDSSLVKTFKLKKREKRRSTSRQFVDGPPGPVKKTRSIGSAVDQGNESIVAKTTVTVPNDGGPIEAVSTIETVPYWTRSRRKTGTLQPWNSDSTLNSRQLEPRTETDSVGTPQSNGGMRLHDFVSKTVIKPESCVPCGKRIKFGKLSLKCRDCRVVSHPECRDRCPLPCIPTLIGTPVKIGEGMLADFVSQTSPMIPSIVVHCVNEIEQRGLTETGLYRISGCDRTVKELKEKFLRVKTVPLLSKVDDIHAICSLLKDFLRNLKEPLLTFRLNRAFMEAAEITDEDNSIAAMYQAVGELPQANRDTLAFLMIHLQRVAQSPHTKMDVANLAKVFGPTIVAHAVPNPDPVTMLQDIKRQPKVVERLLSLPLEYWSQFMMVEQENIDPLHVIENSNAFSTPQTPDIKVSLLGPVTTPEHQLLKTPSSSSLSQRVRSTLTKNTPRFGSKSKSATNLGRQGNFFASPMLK

[7] = biological target: T3, Tyrosyl-DNA phosphodiesterase 2 (Homo sapiens, UniProt O95551); test: potency against TDP2 phosphodiesterase activity – biochemical, epi absorbance, IC50, dose response (AID 743297)
T3 sequence (O95551 whole entry): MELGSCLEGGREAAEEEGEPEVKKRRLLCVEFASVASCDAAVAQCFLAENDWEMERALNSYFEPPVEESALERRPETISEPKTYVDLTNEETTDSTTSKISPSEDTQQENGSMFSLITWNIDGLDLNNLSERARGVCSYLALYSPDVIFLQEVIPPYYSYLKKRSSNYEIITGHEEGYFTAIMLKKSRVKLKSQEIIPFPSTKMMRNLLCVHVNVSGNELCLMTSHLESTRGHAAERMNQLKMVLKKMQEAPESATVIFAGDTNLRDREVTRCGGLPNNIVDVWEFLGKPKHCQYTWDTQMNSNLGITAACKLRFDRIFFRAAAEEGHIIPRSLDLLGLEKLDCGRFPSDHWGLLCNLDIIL

Genome polyprotein = Genome polyprotein (dengue virus type 2, UniProt P29990); test: flavivirus cap methylation enzyme inhibition – biochemical, confirmation dose response, primary screen (AID 588689); type: functional
[8] = biological target: Tyrosine-protein phosphatase non-receptor type 11 (Homo sapiens, UniProt Q06124); test: PTPN11 enzyme inhibitors – biochemical, selectivity assay for STEP inhibitor project, dose response (AID 602367); type: functional; conditions: read-out: IC50_Mean
[9] = biological target: Tyrosine-protein phosphatase non-receptor type 5 (Homo sapiens, UniProt P54829); test: PTPN5 enzyme inhibition – biochemical, fluorescence intensity, uHTS hits, confirmation (AID 602372); type: functional; conditions: read-out: IC50_Mean
[10] = biological target: Dual specificity protein phosphatase 3 (Homo sapiens, UniProt P51452); test: VHR phosphatase inhibition, dose response, selectivity assay for STEP inhibitor project, biochemical (AID 602374); type: functional; conditions: read-out: IC50_Mean
[11] = biological target: T4, Long-chain-fatty-acid--AMP ligase FadD28 (Mycobacterium tuberculosis, UniProt P9WQ59); test: Fluorescence polarization aasay to screen for inhibitors that compete for the binding of FadD28 to a bisubstrate Measured in Biochemical System Using Plate Reader - 2147-01_Inhibitor_Dose_CherryPick_Activity.; type: functional, Mycobacterium tuberculosis H37Rv
T4 sequence (P9WQ59 whole entry): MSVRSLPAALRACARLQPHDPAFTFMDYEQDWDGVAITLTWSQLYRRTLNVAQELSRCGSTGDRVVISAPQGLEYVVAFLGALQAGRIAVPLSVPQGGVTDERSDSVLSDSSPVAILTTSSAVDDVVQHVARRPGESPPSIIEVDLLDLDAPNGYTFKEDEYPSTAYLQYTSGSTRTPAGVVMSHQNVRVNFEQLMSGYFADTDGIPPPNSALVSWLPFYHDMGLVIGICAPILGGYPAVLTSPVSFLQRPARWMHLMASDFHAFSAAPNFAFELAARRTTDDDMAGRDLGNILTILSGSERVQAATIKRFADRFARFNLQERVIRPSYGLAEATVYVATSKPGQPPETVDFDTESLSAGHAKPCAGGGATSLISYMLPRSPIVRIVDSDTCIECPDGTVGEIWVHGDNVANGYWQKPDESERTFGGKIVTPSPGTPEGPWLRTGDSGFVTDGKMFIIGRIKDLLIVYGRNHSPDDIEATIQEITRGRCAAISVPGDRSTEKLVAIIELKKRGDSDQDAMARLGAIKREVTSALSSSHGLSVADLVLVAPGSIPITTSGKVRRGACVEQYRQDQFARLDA

[12] = biological target: T5, Histone-lysine N-methyltransferase NSD2 (Homo sapiens, UniProt O96028); type: biochemical
T5 sequence (O96028 whole entry): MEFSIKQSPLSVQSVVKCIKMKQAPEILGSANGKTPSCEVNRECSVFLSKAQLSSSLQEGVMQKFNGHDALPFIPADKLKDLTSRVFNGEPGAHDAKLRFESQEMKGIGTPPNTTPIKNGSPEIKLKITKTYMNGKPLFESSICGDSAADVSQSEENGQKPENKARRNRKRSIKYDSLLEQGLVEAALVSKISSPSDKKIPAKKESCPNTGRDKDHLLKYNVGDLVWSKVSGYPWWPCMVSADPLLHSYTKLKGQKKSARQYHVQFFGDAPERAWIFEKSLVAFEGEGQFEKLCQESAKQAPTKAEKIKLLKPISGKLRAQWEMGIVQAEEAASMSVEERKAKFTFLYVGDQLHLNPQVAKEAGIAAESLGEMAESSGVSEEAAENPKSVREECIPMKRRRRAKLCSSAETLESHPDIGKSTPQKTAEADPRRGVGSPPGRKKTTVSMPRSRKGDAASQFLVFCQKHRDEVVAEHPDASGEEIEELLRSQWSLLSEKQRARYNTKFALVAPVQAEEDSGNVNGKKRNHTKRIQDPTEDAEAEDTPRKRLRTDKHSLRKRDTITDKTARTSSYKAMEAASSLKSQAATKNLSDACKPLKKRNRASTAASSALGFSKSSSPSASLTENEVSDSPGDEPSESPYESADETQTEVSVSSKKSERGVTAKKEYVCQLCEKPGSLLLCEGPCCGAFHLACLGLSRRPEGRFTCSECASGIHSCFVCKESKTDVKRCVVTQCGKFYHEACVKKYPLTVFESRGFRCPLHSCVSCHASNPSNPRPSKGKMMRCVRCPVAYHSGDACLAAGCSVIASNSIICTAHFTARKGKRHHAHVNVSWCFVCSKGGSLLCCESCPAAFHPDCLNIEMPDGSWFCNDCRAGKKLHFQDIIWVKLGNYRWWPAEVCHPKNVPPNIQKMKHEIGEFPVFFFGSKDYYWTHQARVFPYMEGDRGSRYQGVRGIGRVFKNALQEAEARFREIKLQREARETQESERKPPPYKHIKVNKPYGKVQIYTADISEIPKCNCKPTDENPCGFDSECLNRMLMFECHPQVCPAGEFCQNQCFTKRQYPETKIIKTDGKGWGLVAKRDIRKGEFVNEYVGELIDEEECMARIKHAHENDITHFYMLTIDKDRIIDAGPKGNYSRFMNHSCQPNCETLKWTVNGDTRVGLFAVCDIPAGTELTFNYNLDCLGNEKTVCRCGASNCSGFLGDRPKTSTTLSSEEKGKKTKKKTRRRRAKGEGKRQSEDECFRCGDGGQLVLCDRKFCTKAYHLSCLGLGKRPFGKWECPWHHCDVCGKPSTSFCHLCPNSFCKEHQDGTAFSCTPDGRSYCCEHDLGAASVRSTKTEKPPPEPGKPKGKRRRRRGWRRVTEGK

[13] = biological target: Potassium voltage-gated channel subfamily KQT member 2 (Rattus norvegicus, UniProt O88943); test: blockers of KCNQ2 channel current – cell-based, automated electrophysiology, set II, rat KCNQ2, dose response (AID 588637); type: functional
[14] = biological target: DNA (cytosine-5)-methyltransferase 1 (Homo sapiens, UniProt P26358); test: inhibition of DNA methylation by DNMT1 – biochemical, fluorescent molecular beacon, confirmation (AID 602386); type: functional
[15] = biological target: T6, Small ubiquitin-related modifier 2 (Homo sapiens, UniProt P61956); test: disruption of SUMO2 interaction with SIM peptide – biochemical, fluorescence polarization, uHTS hits, selectivity assay for SUMO1 interaction inhibitor project, dose response (AID 624385); type: functional; conditions: read-out: IC50_Mean
[16] = biological target: T7, Small ubiquitin-related modifier 1 (Homo sapiens, UniProt P63165); test: SUMO1 protein interaction blockers, potency – biochemical, fluorescence polarization, uHTS hits, dose response (AID 624382); type: functional; conditions: read-out: IC50_Mean
[17] = biological target: T6, Small ubiquitin-related modifier 2; test: SUMO2 binding disruption by SUMO1 hits – biochemical, FRET, human SUMO2, uHTS hits, selectivity assay for SUMO1 interaction inhibitor project, dose response (AID 624384); type: functional; conditions: read-out: IC50_Mean
[18] = biological target: T7, Small ubiquitin-related modifier 1; test: SUMO1 protein-protein binding blockers, potency – biochemical, FRET, dose response (AID 624383); type: functional; conditions: read-out: IC50_Mean
[19] = inhibition of ARNT PAS-B/TACC3 complex formation – biochemical, AlphaScreen, cherry-picked samples, confirmation (AID 651703); type: functional, Homo sapiens;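 also: His-tagged ARNT PAS-B domain paired with GST-TACC3 E629A dimer coactivator fragment; potency of inhibitors that break up the complex and lower AlphaScreen signal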
[20] = biological target: ADP-ribosylation factor GTPase-activating protein 1 (Rattus norvegicus, UniProt Q62848); test: Fluorescence polarization-based biochemical high throughput dose response screening assay to identify inhibitors of ADP-ribosylation factor GTPase activating protein 1 (ARFGAP1).; type: functional
[21] = biological target: Arf-GAP with SH3 domain, ANK repeat and PH domain-containing protein 1 (Homo sapiens, UniProt Q9ULH1); type: functional;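 also: biochemical fluorescence polarization dose–response screen measuring inhibition of ASAP1; ASAP1 GAP domain stimulating GTP hydrolysis by truncated human ARF1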

T6 sequence (P61956 whole entry): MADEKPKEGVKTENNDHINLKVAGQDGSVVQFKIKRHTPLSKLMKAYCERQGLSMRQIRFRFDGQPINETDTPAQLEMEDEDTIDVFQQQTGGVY
T7 sequence (P63165 whole entry): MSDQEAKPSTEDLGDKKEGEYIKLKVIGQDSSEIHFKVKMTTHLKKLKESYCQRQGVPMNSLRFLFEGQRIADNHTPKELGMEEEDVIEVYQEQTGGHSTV
Sequence of Genome polyprotein (P29990 2492-3391 limits assumed): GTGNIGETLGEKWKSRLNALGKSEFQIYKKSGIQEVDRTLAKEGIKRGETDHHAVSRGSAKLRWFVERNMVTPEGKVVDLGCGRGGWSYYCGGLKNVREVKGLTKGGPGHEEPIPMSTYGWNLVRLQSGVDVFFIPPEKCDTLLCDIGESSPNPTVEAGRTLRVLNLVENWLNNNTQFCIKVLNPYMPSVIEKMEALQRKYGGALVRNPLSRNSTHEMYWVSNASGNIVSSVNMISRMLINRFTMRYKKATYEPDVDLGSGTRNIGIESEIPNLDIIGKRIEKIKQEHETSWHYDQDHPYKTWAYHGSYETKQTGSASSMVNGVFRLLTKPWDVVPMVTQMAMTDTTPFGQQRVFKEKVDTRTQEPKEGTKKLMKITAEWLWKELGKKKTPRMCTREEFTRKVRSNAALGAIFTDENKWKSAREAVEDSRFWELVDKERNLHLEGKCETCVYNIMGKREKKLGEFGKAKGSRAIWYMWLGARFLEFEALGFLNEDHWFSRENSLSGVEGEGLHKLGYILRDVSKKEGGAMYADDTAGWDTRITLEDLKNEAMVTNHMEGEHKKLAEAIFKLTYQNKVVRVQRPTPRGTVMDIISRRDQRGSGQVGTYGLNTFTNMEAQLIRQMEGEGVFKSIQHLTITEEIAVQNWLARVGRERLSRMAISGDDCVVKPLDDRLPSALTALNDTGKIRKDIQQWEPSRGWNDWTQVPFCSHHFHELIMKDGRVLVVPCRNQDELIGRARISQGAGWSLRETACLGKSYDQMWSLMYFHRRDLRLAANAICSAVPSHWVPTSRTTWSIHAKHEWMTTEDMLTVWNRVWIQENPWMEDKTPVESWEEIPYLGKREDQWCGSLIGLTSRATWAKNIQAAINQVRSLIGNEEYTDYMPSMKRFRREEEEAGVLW
Sequence of Beta-lactamase (Salmonella choleraesuis (strain SC-B67), UniProt Q5J463) (Q5J463 whole entry): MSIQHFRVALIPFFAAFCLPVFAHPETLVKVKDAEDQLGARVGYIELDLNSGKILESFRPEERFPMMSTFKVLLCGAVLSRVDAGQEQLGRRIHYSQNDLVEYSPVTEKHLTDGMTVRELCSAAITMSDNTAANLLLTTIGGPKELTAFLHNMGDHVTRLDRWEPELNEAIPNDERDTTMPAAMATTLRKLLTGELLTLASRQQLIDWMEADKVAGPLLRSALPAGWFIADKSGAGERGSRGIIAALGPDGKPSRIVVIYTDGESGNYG
Sequence of Potassium voltage-gated channel subfamily KQT member 2 (O88943 whole entry): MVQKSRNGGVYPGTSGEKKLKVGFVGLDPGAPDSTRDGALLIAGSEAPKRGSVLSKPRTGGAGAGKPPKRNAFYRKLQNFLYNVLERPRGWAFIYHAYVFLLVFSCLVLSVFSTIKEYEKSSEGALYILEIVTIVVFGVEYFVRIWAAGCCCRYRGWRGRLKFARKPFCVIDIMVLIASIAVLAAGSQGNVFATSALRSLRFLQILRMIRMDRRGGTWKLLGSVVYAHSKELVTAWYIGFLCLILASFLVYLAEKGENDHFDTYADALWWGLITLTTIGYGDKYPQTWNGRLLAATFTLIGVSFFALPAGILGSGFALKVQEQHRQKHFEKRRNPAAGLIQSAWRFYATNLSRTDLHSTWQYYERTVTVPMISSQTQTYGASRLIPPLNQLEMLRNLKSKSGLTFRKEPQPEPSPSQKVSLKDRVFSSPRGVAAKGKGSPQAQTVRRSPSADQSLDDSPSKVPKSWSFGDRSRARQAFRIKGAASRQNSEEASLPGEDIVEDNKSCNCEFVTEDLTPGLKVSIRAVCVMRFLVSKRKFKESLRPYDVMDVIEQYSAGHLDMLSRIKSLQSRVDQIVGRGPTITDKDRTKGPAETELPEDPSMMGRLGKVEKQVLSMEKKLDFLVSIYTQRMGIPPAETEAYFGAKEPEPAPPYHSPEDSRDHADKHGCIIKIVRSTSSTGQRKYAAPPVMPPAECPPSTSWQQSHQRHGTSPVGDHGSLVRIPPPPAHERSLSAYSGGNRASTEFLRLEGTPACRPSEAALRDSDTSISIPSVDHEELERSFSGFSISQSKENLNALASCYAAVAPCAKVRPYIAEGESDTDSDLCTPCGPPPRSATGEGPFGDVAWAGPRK
Sequence of Beta-lactamase (Pseudomonas aeruginosa, UniProt Q79MP6) (Q79MP6 whole entry): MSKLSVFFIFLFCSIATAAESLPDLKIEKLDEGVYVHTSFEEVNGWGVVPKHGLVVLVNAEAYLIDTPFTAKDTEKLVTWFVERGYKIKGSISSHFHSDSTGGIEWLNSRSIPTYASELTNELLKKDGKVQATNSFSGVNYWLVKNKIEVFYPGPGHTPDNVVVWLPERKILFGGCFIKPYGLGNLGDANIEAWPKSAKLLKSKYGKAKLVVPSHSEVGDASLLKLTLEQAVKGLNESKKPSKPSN
Sequence of Dual specificity protein phosphatase 3 (P51452 whole entry): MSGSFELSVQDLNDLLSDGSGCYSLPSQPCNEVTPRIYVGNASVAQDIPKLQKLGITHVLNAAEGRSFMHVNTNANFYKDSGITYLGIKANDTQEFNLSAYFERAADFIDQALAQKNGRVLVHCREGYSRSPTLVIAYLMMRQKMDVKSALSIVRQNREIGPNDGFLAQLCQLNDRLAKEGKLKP
Sequence of Tyrosine-protein phosphatase non-receptor type 5 (P54829 whole entry): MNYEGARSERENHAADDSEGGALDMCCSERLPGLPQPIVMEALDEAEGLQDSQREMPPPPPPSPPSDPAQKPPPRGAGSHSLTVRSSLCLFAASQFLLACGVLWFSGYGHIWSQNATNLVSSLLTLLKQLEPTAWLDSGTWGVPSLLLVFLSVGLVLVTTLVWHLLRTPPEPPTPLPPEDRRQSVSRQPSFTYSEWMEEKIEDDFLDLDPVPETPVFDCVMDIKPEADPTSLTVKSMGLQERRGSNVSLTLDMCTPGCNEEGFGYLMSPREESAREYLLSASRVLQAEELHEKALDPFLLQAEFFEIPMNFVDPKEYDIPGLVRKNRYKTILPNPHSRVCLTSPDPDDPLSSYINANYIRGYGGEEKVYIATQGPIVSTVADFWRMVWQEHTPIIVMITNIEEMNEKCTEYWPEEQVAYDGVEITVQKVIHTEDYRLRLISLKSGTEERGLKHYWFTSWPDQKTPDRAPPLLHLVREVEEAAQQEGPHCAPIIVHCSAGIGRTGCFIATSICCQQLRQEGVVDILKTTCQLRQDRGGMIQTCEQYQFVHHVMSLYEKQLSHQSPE
Sequence of ADP-ribosylation factor GTPase-activating protein 1 (Q62848 whole entry, the tested form may be a part): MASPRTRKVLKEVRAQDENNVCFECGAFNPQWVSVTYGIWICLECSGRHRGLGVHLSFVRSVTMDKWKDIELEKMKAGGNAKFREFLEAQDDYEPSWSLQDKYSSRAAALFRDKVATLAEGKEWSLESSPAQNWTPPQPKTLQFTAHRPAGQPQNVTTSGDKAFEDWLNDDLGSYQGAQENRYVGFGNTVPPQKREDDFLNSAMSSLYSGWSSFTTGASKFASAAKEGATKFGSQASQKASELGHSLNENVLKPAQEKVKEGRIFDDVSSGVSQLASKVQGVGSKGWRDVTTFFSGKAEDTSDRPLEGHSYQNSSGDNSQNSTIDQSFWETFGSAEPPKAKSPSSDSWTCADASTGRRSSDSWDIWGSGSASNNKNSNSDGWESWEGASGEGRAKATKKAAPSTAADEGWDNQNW
Sequence of Tyrosine-protein phosphatase non-receptor type 11 (Q06124 whole entry): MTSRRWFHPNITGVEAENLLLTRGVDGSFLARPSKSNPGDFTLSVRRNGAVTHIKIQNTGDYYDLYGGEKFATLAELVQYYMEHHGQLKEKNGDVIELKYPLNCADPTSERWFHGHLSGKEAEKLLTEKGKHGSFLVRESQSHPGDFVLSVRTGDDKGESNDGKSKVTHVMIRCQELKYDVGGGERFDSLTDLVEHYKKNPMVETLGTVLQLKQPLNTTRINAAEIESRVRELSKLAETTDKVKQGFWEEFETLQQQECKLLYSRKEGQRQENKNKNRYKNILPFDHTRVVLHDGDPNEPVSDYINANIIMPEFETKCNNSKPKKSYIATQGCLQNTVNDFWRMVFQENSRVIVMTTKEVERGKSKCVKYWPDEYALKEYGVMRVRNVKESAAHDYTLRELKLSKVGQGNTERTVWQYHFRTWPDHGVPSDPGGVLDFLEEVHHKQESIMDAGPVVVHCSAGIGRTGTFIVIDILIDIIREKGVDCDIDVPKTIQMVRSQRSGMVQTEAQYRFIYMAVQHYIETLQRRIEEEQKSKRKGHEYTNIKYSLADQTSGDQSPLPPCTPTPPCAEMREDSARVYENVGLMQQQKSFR
Sequence of Mitochondrial peptide methionine sulfoxide reductase (P54149 whole entry): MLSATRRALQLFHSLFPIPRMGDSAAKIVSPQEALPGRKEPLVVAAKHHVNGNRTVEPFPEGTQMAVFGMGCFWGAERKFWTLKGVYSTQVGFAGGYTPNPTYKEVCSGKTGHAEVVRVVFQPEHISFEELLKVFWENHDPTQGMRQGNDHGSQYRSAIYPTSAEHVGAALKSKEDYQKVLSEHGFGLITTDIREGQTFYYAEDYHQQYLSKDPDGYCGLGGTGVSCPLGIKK

Compound: O=C(Nc1ccc(S(=O)(=O)Nc2ccccn2)cc1)c1ccc([N+](=O)[O-])cc1Cl
- IC50 [1]: 3.85 µM (active)

Compound: COc1ccc(-c2cc(=O)oc3c(C)c(OCC(=O)NCCCn4ccnc4)ccc23)cc1
- IC50 (Beta-lactamase [2]): > 59.6 µM (inactive)
- IC50 (Beta-lactamase [3]): > 59.6 µM (inactive)

Compound: C[n+]1c(-c2ccccc2)cc2c(=Cc3ccccc3)c3ccccc3n21
- EC50 [4]: > 104 µM (inactive)
- CC50 [5]: 26.3 µM (active)
- IC50 [6]: 58.9 µM (active)
- IC50 [7]: > 128 µM (inactive)

Compound: CC(C(=O)Nc1ccc(O)cc1C(=O)O)N1C(=O)/C(=C\c2cccs2)SC1=S (stereo not drawn)
- IC50 (Genome polyprotein): 47.9 µM (active)
- IC50 [8]: 1.5 µM (active)
- IC50 [9]: 20.5 µM (inactive)
- IC50 [10]: 5.64 µM (active)
- AC50 [11]: 49.3 µM (active)
- AC50 [12]: > 20 µM (inactive)

Compound: CCN(CC)S(=O)(=O)c1ccc(N2CCOCC2)c(NC(=O)COc2ccccc2)c1
- IC50 [13]: 2.96 µM (active)

Compound: CN(c1ccccc1)c1ccc(/C=C(/CCC(=O)O)c2nc3ccccc3s2)cc1[N+](=O)[O-]
- IC50 (Genome polyprotein): 48.5 µM (active)
- IC50 [14]: 9.98 µM (active)
- IC50 [15]: 6.2 µM (active)
- IC50 [16]: 11.1 µM (active)
- IC50 [17]: > 66 µM (inactive)
- IC50 [18]: 51.8 µM (inactive)

Compound: C[C@H]1CN([C@@H](C)CO)C(=O)c2cc(NC(=O)Nc3cccc4ccccc34)ccc2O[C@@H]1CN(C)C(=O)Nc1ccc(C(F)(F)F)cc1
- AC50 [19]: 108 µM (active)

Compound: CCCCOc1cccc2c(=O)n(CC(=O)Nc3ccc4c(c3)OCCO4)ccc12
- IC50 [20]: 36.8 µM (inactive)
- IC50 [21]: 18.3 µM (inactive)
